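Tested at 5 concentrations; 48 h exposure; 96-well plates; endpoints linearly interpolated, else capped at highest concentration. GI50: concentration for 50% inhibition of growth. TGI marks complete inhibition of growth.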
Legend:
Assay in all cases: DTP human tumour cell line panel, 48 h
MCF7 breast = system: MCF7 breast
NCI/ADR-RES ovarian = system: NCI/ADR-RES ovarian
BT-549 breast = system: BT-549 breast
HOP-62 NSCLC = system: HOP-62 NSCLC
RPMI-8226 leukemia = system: RPMI-8226 leukemia

Compound	GI50 (MCF7 breast)	TGI (MCF7 breast)	TGI (NCI/ADR-RES ovarian)	TGI (BT-549 breast)	TGI (HOP-62 NSCLC)	TGI (RPMI-8226 leukemia)
O=c1cc(-c2cccc(OC(F)(F)F)c2)[nH]c2ccc(N3CCCC3)cc12	0.0385 µM	> 100 µM	0.000673 µM	–	–	–
Clc1cc(N/N=C(\c2ccccc2)c2ccccn2)ncn1	–	–	–	> 100 µM	0.665 µM	1.92 µM
